Marks after values point to notes of the source that are not given here.
Columns and labels:
[1] = system: sweat secretion of rat paw part; test: Sweat secretion of rat paw part (coloring method); type: in vivo, Wistar rats; settings: for Animal number of sweat points of level +: + = sweat area below about 10%; for Animal number of sweat points of level ++: ++ = sweat area about 11-40%; for Animal number of sweat points of level +++: +++ = sweat area about 41-70%; for Animal number of sweat points of level ++++: ++++ = sweat area over 71%; for Animal number of sweat points of level −: − = no sweat point
From the text: This test was designed to observe the change of sweat secretion based on the mechanism that sweat gland is distributed on the rat paw pads, and iodine and starch can have purple reaction when encountered with sweat. In the test, 350 Wistar rats were selected, with equal male and female number, weighing 120-150 g. […] The rats were placed in a self-made rat fixation bag, with the double hind limbs exposed. The dirts on the right paw was gently scrubbed clean with the cotton swab dipped with anhydrous ethanol. Besides that subcutaneous injection was used for the pilocarpine solution, intragastric administration was used for all the other groups. […] When the test was complete, statistical process was carried out according to the rank-sum test with two-sample comparison, in order to compare the difference between the groups.

[2] = system: Herpes Simplex Virus type I (HSV-1); test: Impact of the drugs on the virus-induced cytopathy (MTT); type: cell-based; settings: HSV-I 100 TCID50, Vero cells, about the maximal non-cytotoxic concentration, 72 hours
[3] = system: Coxsackie virus A16 (CoxA16); test: as above; type: cell-based; settings: CoxA16 100 TCID50, Vero cells, about the maximal non-cytotoxic concentration, 72 hours
parainfluenza virus = test: as above; type: cell-based; settings: parainfluenza virus 100 TCID50, Vero cells, about the maximal non-cytotoxic concentration, 72 hours
[4] = system: rat toe swelling induced by carrageenan; test: Rat toe swelling induced by carrageenan; type: in vivo, Wistar rats
Description: The test groups were administered by sublingual intravenous injection. Before the test, capillary magnification measurement method was used to measure the normal volume of the right hind foot of the rats in each group. To avoid errors, the measurement location was fixed and the operation was made by one person both before and after the administration. The average value of the two measurements was taken as the normal volume of the right hind foot of the rats before administration. […] The difference between the groups was compared by inter-group t test processing through the difference percentage (swelling ratio) of the paw volume before and after the induced rat inflammation.

Adenovirus (AdV) = test: Impact of the drugs on the virus-induced cytopathy (MTT); type: cell-based; settings: ADV 100 TCID50, Vero cells, about the maximal non-cytotoxic concentration, 72 hours
[5] = system: sweat gland epithelial cells at the rat toe part; test: Sweat secretion of rat paw part (tissue morphology observation method); type: in vivo, Wistar rats; settings: for Number of sweat glands of vacuole / Void fraction (%): rat toe part
From the text: This test was based on the mechanism that when rat sweat gland is excited, in addition to sweat secretion increase, the morphology of sweat gland epithelial cell is also changed. The number increase and expansion of empty cells of the sweat gland epithelial cells can be seen under the optical microscope. Such enlarged vacuole presents mitochondrial in sweat gland epithelial cells swelling, rupture, fusion and secretory vesicle enlargement under the electron microscope, and through the morphological observation of the sweat gland epithelial cell at the rat paw part, the secretory activity of the sweat gland can be known. In the test, 70 Wistar rats were selected, with equal male and female number, weighing 120-160 g. […] Besides that subcutaneous injection was used for the pilocarpine solution, intragastric administration was used for all the other groups.

[6] = after coating B liquid for 1 minute, 2.5 mg/kg intragastric
[7] = after coating B liquid for 1 minute, 5.0 mg/kg intragastric
[8] = after coating B liquid for 1 minute, 10.0 mg/kg intragastric
[9] = after coating B liquid for 5 minutes, 2.5 mg/kg intragastric
[10] = after coating B liquid for 5 minutes, 5.0 mg/kg intragastric
[11] = after coating B liquid for 5 minutes, 10.0 mg/kg intragastric
[12] = after coating B liquid for 10 minutes, 2.5 mg/kg intragastric
[13] = after coating B liquid for 10 minutes, 5.0 mg/kg intragastric
[14] = after coating B liquid for 10 minutes, 10.0 mg/kg intragastric
[15] = after coating B liquid for 15 minutes (Table 2-4), 2.5 mg/kg intragastric
[16] = after coating B liquid for 15 minutes (Table 2-4), 5.0 mg/kg intragastric
[17] = after coating B liquid for 15 minutes (Table 2-4), 10.0 mg/kg intragastric
[18] = after coating B liquid for 15 minutes (Table 2-5), 2.5 mg/kg intragastric
[19] = after coating B liquid for 15 minutes (Table 2-5), 5.0 mg/kg intragastric
[20] = after coating B liquid for 15 minutes (Table 2-5), 10.0 mg/kg intragastric

## COc1ccc([C@H]2OCC3C2CO[C@H]3c2ccc(OC)c(OC(=O)C(C)c3ccc(CC(C)C)cc3)c2)cc1OC (stereo partly shown) [Phillygenin ibuprofen ester, phillygenin ibuprofen ester]
[1]; 10 mg/kg, after coating B liquid for 5, 10, 15 and 20 min, P<0.05
  effect on the sweat secretion of rat paw part vs control group: obvious promoting effect
[1]; [6]
  Animal number of sweat points of level +: 2
  Animal number of sweat points of level ++: 3
  Animal number of sweat points of level +++: 3
  Animal number of sweat points of level ++++: 2
  Animal number of sweat points of level −: 0
[1]; [7]
  Animal number of sweat points of level +: 1
  Animal number of sweat points of level ++: 2
  Animal number of sweat points of level +++: 3
  Animal number of sweat points of level ++++: 4
  Animal number of sweat points of level −: 0
[1]; [8]
  Animal number of sweat points of level +: 1
  Animal number of sweat points of level ++: 3
  Animal number of sweat points of level +++: 1
  Animal number of sweat points of level ++++: 5
  Animal number of sweat points of level −: 0
[1]; [9]
  Animal number of sweat points of level +: 1
  Animal number of sweat points of level ++: 3
  Animal number of sweat points of level +++: 3
  Animal number of sweat points of level ++++: 3
  Animal number of sweat points of level −: 0
[1]; [10]
  Animal number of sweat points of level +: 1
  Animal number of sweat points of level ++: 4
  Animal number of sweat points of level +++: 1
  Animal number of sweat points of level ++++: 5
  Animal number of sweat points of level −: 0
[1]; [11]
  Animal number of sweat points of level +: 0
  Animal number of sweat points of level ++: 3
  Animal number of sweat points of level +++: 2
  Animal number of sweat points of level ++++: 5
  Animal number of sweat points of level −: 0
[1]; [12]
  Animal number of sweat points of level +: 1
  Animal number of sweat points of level ++: 2
  Animal number of sweat points of level +++: 3
  Animal number of sweat points of level ++++: 4
  Animal number of sweat points of level −: 0
[1]; [13]
  Animal number of sweat points of level +: 0
  Animal number of sweat points of level ++: 3
  Animal number of sweat points of level +++: 2
  Animal number of sweat points of level ++++: 5
  Animal number of sweat points of level −: 0
[1]; [14]
  Animal number of sweat points of level +: 0
  Animal number of sweat points of level ++: 2
  Animal number of sweat points of level +++: 3
  Animal number of sweat points of level ++++: 5
  Animal number of sweat points of level −: 0
[1]; [15]
  Animal number of sweat points of level +: 1
  Animal number of sweat points of level ++: 3
  Animal number of sweat points of level +++: 1
  Animal number of sweat points of level ++++: 5
  Animal number of sweat points of level −: 0
[1]; [16]
  Animal number of sweat points of level +: 0
  Animal number of sweat points of level ++: 2
  Animal number of sweat points of level +++: 3
  Animal number of sweat points of level ++++: 5
  Animal number of sweat points of level −: 0
[1]; [17]
  Animal number of sweat points of level +: 0
  Animal number of sweat points of level ++: 1
  Animal number of sweat points of level +++: 4
  Animal number of sweat points of level ++++: 5
  Animal number of sweat points of level −: 0
[1]; [18]
  Animal number of sweat points of level +: 0
  Animal number of sweat points of level ++: 2
  Animal number of sweat points of level +++: 3
  Animal number of sweat points of level ++++: 5
  Animal number of sweat points of level −: 0
[1]; [19]
  Animal number of sweat points of level +: 0
  Animal number of sweat points of level ++: 1
  Animal number of sweat points of level +++: 4
  Animal number of sweat points of level ++++: 5
  Animal number of sweat points of level −: 0
[1]; [20]
  Animal number of sweat points of level +: 0
  Animal number of sweat points of level ++: 0
  Animal number of sweat points of level +++: 5
  Animal number of sweat points of level ++++: 5
  Animal number of sweat points of level −: 0
[2]
  antiviral effective rate (ER %): 99.80**^# %
[3]
  antiviral effective rate (ER %): 75.89**^## %
Parainfluenza virus
  antiviral effective rate (ER %): 100.00**^# %
[4]; 2.5 mg/kg sublingual intravenous injection, 30 min
  Swelling ratio (%): 0.215 ± 0.120%
[4]; 2.5 mg/kg sublingual intravenous injection, 60 min
  Swelling ratio (%): 0.293 ± 1.117%
[4]; 2.5 mg/kg sublingual intravenous injection, 120 min
  Swelling ratio (%): 0.450 ± 0.254%
[4]; 2.5 mg/kg sublingual intravenous injection, 180 min
  Swelling ratio (%): 0.800 ± 0.339%
[4]; 2.5 mg/kg sublingual intravenous injection, 240 min
  Swelling ratio (%): 0.865 ± 0.303%
[4]; 2.5 mg/kg sublingual intravenous injection, 300 min
  Swelling ratio (%): 1.045 ± 0.308%
[4]; 2.5 mg/kg sublingual intravenous injection, 360 min
  Swelling ratio (%): 0.930 ± 0.200%
[4]; 5.0 mg/kg sublingual intravenous injection, 30 min
  Swelling ratio (%): 0.065 ± 0.112 %
[4]; 5.0 mg/kg sublingual intravenous injection, 60 min
  Swelling ratio (%): 0.127 ± 0.178 %
[4]; 5.0 mg/kg sublingual intravenous injection, 120 min
  Swelling ratio (%): 0.209 ± 0.438 %
[4]; 5.0 mg/kg sublingual intravenous injection, 180 min
  Swelling ratio (%): 0.338 ± 0.524 %
[4]; 5.0 mg/kg sublingual intravenous injection, 240 min
  Swelling ratio (%): 0.461 ± 0.402**^Δ %
[4]; 5.0 mg/kg sublingual intravenous injection, 300 min
  Swelling ratio (%): 0.688 ± 0.503%
[4]; 5.0 mg/kg sublingual intravenous injection, 360 min
  Swelling ratio (%): 0.675 ± 0.578%
[4]; 10.0 mg/kg sublingual intravenous injection, 30 min
  Swelling ratio (%): 0.025 ± 0.210***^Δ▴▴▴ %
[4]; 10.0 mg/kg sublingual intravenous injection, 60 min
  Swelling ratio (%): 0.079 ± 0.156**^Δ▴▴ %
[4]; 10.0 mg/kg sublingual intravenous injection, 120 min
  Swelling ratio (%): 0.140 ± 0.156 %
[4]; 10.0 mg/kg sublingual intravenous injection, 180 min
  Swelling ratio (%): 0.191 ± 0.216 %
[4]; 10.0 mg/kg sublingual intravenous injection, 240 min
  Swelling ratio (%): 0.255 ± 0.294 %
[4]; 10.0 mg/kg sublingual intravenous injection, 300 min
  Swelling ratio (%): 0.310 ± 0.226***^Δ▴▴ %
[4]; 10.0 mg/kg sublingual intravenous injection, 360 min
  Swelling ratio (%): 0.405 ± 0.231 %
[4]; high dose group, within 30 min to 360 min after administration
  effect on the rat paw swelling induced by carrageenin vs blank control group: significant inhibitive effects
Adenovirus (AdV)
  antiviral effective rate (ER %): 75.90**^## %
[5]; 5 and 10 mg/kg, p<0.01 or p<0.001
  effect on the sweat secretion of the rat toe part vs control group: obvious promoting effect
[5]; 2.5 mg/kg intragastric
  Number of sweat glands of vacuole: 20
  Void fraction (%): 8.47%
[5]; 5.0 mg/kg intragastric
  Number of sweat glands of vacuole: 42
  Void fraction (%): 32.11***; ^# %
[5]; 10.0 mg/kg intragastric
  Number of sweat glands of vacuole: 75
  Void fraction (%): 35.21***; ^## %
